# Assay results reported in patent publication US11161876B2, “Anti-inflammatory nanofibers” (Northwestern University, priority 2015, dated 2021).
# “Also recorded” adds a separate entry of the source. * marks the point of attachment. C16 alkyl = CCCCCCCCCCCCCCCC*
# How the values were obtained:
# Settings in all cases: 10 days post-augmentation; compared between groups
# [1] = tested on: Rat Bladder Augmentation Model; experiment: Bladder tissue collagen quantification (Masson's Trichrome); type: in vivo
# Description: (§1) Athymic female rats (weighing ˜200 g and 8-10 weeks old; National Cancer Institute Animal Production Program) underwent bladder augmentation (ref. 15; herein incorporated by reference in its entirety). Athymic rats were chosen for this study to solely examine the innate immune response to inflammation without influence of the adaptive immune response. In order to induce anesthesia, animals were given intraperitoneal injections of 60 mg/kg ketamine and 5 mg/kg xylazine. A second injection consisting of Buprenex (1 mg/kg) was administered subcutaneously to alleviate any pain/discomfort during and following surgical procedures. An approximate 1.5 cm midline vertical skin incision was created to expose the abdominal fascia and muscles. This was immediately followed by the separation of the wall leading to the identification of the bladder. An approximate 70% supratrigonal cystectomy was performed from anterior to posterior creating a clamshell. Immediately prior to bladder augmentation procedures, samples of the pro-inflammatory biological scaffold, small intestinal submucosa (SIS (0.5×0.5 cm); Cook Biotech.) (refs. 12,13,16; herein incorporated by reference in their entireties) were thoroughly dip-coated separately in one of the previously described AIF-PAs following gelation procedures. The sections of SIS were dip-coated for approximately 20 seconds and allowed to adhere to the SIS for an additional 30 seconds. Dip-coating procedures were performed at room temperature in air. The cystectomized bladder defect was then augmented with: 1) SIS (non-AIF-PA coated SIS; n=8 animals over both time-points); 2) AIF-PA1 coated SIS (denoted as SIS/AIF-PA1; n=11 animals over both time-points); 3) AIF-PA2 coated SIS (denoted as SIS/AIF-PA2; n=8 animals over both time-points); 4) AIF-PA3 coated SIS (denoted as SIS/AIF-PA3; n=3); 5) AIF-PA4 coated SIS (denoted as SIS/AIF-PA4; n=3 animals); 6) AIF-PA5 coated SIS (denoted as SIS/AIF-PA5; n=3 animals); and 7) AIFC-PA6 coated SIS (denoted as SIS/AIFC-PA6; n=9 animals over both time-points). The bladder was finally covered with omentum after being closed in a watertight manner utilizing 7-0 polyglactin suture. The abdominal wall was then closed in a single layer with 5-0 ethibond running suture and the skin re-approximated with 9 mm autoclips. Each group was sacrificed at 10 day and 5 week time-points.
# Explanted bladder specimens encompassing the entire thickness of the bladder were isolated immediately following euthanasia and processed (ref. 15; herein incorporated by reference in its entirety). Specimens were fixed in a 10% buffered formalin phosphate (Fisher Scientific, Inc.) solution followed by a series of graded ethanol exchanges then embedded in paraffin (Fisher Scientific). Embedded tissues were sectioned onto glass slides at a thickness of 10 μm using a RM2125 RT Microtome (Leica) onto glass slides and subjected to staining with Masson's Trichrome (Sigma-Aldrich Corp.) reagent. The paraffin was removed from tissue containing slides using a hot plate at 62° C. for 6 minutes and was followed by treatment with xylenes, graded ethanol washes and DI water. Slides were placed in Bouin's solution (Sigma-Aldrich Corp.) for approximately 15 min then rinsed under running tap water. The samples were then stained 5 minutes with Hematoxylin and rinsed with running water and subsequently stained with Scarlet-Acid Fuchsin (Sigma-Aldrich Corp.). Slides were rinsed again with DI water and placed into a mixture of PTA/PMA, followed by Aniline Blue solution and a 1% acetic acid wash. Finally, slides were placed in 95-100% ethanol and rinsed in xylene. Following air drying, a coverslip was placed over the specimen sample and secured with Permaslip (Alban Scientific Inc).
# Bladder tissue specimens were evaluated for collagen content (refs. 13,15,17; herein incorporated by reference in their entireties). […]
# [2] = tested on: Rat Bladder Augmentation Model; experiment: Blood vessel quantification in areas of bladder tissue regeneration; type: in vivo
# Description: as §1
# Trichrome sample images were opened with Adobe Photoshop CS3 and were initially characterized utilizing a Nikon Eclipse 50i Microscope in addition to Spot Advanced Imaging Software. Vessel numbers were quantified utilizing the pen tool based upon n=10 images per graft in regenerated areas. Individual vessels were selected manually and subsequently quantified using the image histogram tool to acquire pixel density for each vessel. Data is represented as mean number of vessels/mm^2 (means±SE).
# CD68+ macrophages = experiment: Immunofluorescence quantification of CD68+ macrophages in regenerated bladder tissue; type: in vivo, rat
# Description: as §1
# (§2) Tissue sections comprised of SIS alone, SIS/AIF-PA1, SIS/AIF-PA2, and SIS/AIF-PA6 augmentations were subjected to immunofluorescence staining by initially undergoing antigen retrieval which consisted of 15 min of boiling in citrate buffer (0.01M citrate solution, pH 6.0 with 0.05% Tween-20) followed by cooling at room temperature for approximately 20 minutes. The antibody staining process consisted of a blocking step for 15 min in bovine serum albumin (BSA, 5 mg/ml) followed by a 40 minutes incubation at room temperature with the primary antibody. After washing with DPBS, slides were incubated for 30 min with a secondary antibody and eventually rinsed with DPBS and air dried. Slides were mounted with Vectashield (Vector Laboratories). Primary antibodies were directed against epitopes for the inflammatory markers CD68 (macrophage) (refs. 18,19; herein incorporated by reference in their entireties) MPO (neutrophil) (ref. 20; herein incorporated by reference in its entirety) or the inflammation-related proteins IL1β, TNFα, IL-10, IL-13, CD206 (M2 macrophage) (refs. 21-25; herein incorporated by reference in their entireties) and CD86 (M1 macrophage) (ref. 26; herein incorporated by reference in its entirety). Antibodies directed against the ECM in regenerating bladder tissue (including COL4A3 and fibronectin) were also utilized. Alexa Red 555 or FITC conjugated secondary antibodies (Molecular Probes) were utilized for visualization (ref. 15; herein incorporated by reference in its entirety). […]
# MPO+ neutrophils = experiment: Immunofluorescence quantification of MPO+ neutrophils in regenerated bladder tissue; type: in vivo, rat
# Description: as §1, §2
Substance,"collagen levels, in words [1]","blood vessel formation, in words [2]","CD68+ macrophage levels, in words (CD68+ macrophages)","MPO+ neutrophil levels, in words (MPO+ neutrophils)"
"C16-VVVAAAEEEKVLDPVKG (SEQ ID NO:3) ({C16 alkyl}-VVVAAAEEEKVLDPVKG-NH2) [SIS/AIF-PA3, anti-inflammatory peptide amphiphile, tested dip-coated on small intestinal submucosa (SIS) scaffold]",lower mean collagen levels,greater numbers of vessels/mm2,comparable macrophage levels to SIS/AIF-PA1; also recorded: significantly lower,–
"C16-VVVAAAEEEKVLDGQDP (SEQ ID NO:4) ({C16 alkyl}-VVVAAAEEEKVLDGQDP-NH2) [SIS/AIF-PA4, anti-inflammatory peptide amphiphile, tested dip-coated on small intestinal submucosa (SIS) scaffold]",lower mean collagen levels,greater numbers of vessels/mm2,significantly lower,significantly lower
"C16-VVVAAAEEEDPVKG (SEQ ID NO:5) ({C16 alkyl}-VVVAAAEEEDPVKG-NH2) [SIS/AIF-PA5, anti-inflammatory peptide amphiphile, tested dip-coated on small intestinal submucosa (SIS) scaffold]",not significantly different from those of control groups,least level of blood vessel formation; also recorded: not significantly different from those of control groups,–,–
